Columns and labels:
TDP1 [1] = target: T1, TDP1 (Homo sapiens, UniProt Q9NUW8); assay: Steady-state kinetic analysis of TDP1 reaction, single-stranded substrate; assay type: biochemical; settings: for Ki: Cornish-Bowden method, read-out: Inhibition constant, KI
T1 construct: made in house; host or cells: E. coli
Description: (§1) To determine the kinetic parameters: apparent maximum rate of enzymatic reaction (Vmax), Michaelis constant (KM), constant of inhibition (KI), and possible inhibition mechanism, steady-state kinetic experiments were carried out at five fixed concentrations of substrate with variation of inhibitor concentrations. The standard reaction mixtures (200 μl) contained 50 nM, 100 nM, 200 nM, 500 nM or 1000 nM substrate, testable inhibitor, 1.5 nM recombinant human TDP1 and reaction buffer components (50 mM Tris-HCl, pH 8.0, 50 mM NaCl, 7 mM β-mercaptoethanol). After addition of the enzyme, the reaction mixtures were incubated at a constant temperature of 26 °C and measured in a POLARstar OPTIMA fluorimeter, BMG LABTECH, GmbH, to measure fluorescence every 55 s (Ex485/Em520 nm) during the linear phase (data from 0 to 8 min). The initial data (kinetic curves) were obtained in three independent experiments and statistically processed in software OriginPro 8.6.0.
Vmax and KM decrease proportionally (Figure 6(A,B)), which corresponds to the uncompetitive type of inhibition, according to the general equation of the rate of product formation in the Michaelis–Menten kinetics.
(§2) Values of the inhibition constant (KI) were determined using Cornish–Bowden method. Similar experiments were performed for all seven tested inhibitors on two types of DNA substrates, and the results are shown in Table 4.

[2] = target: T2, SCAN1 (mutant form of TDP1 with H493R substitution) (Homo sapiens, UniProt Q9NUW8, H493R); assay: Fluorescence real-time assay on mutant TDP1 (SCAN1), single-stranded oligonucleotide; assay type: biochemical
T2 construct: made in house; host or cells: E. coli
From the text: The recombinant tyrosyl-DNA phosphodiesterase 1 and the mutant form of TDP1 with substitution (H493R) were expressed in the E. coli system (plasmids pET16B-TDP1 and pET16B-SCAN1 were provided by Dr. K.W. Caldecott, University of Sussex, United Kingdom and by Dr. S. El-Khamisy, University of Sheffield, United Kingdom) and purified according to the previously described technique.
(§3) Conditions and details for our real-time detection of TDP1 activity using the single-stranded and hairpin fluorescent biosensors were reported in our previous work[47]. Briefly, the approach consists in fluorescence intensity measurement of the reaction of quencher removal from the fluorophore-quencher coupled DNA-oligonucleotide catalysed by TDP1 in the presence of inhibitor and in the absence of it (the control samples contained 1% DMSO). Reaction mixtures (200 µl) contained TDP1 buffer (50 mM Tris-HCl, pH 8.0, 50 mM NaCl, 7 mM β-mercaptoethanol), oligonucleotide (50 nM substrate of TDP1), testable inhibitor and purified TDP1 (1.5 nM). The reactions were incubated at a constant temperature of 26 °C in a POLARstar OPTIMA fluorimeter, BMG LABTECH, GmbH, to measure fluorescence every 55 s (Ex485/Em520 nm) during the linear phase (here data from 0 to 8 min). The average values of half maximal inhibitory concentration (IC50) were determined using an eleven-point concentration response curve in three independent experiments and calculated using MARS Data Analysis 2.0 (BMG LABTECH).
The IC50 values obtained by the fluorescence real-time assay on a single-stranded oligonucleotide (section 3.1) were higher than 100 μM.

TDP1 [3] = target: T1, TDP1; assay: Steady-state kinetic analysis of TDP1 reaction, double-stranded (hairpin) substrate; assay type: biochemical; settings: for Ki: Cornish-Bowden method, read-out: Inhibition constant, KI
Description: as §1, §2

TDP1 [4] = target: T1, TDP1; assay: Fluorescence anisotropy assay of TDP1-DNA substrate complex; assay type: binding; settings: 3 nM single-strand oligonucleotide without quencher, 50 nM TDP1
Description: Fluorescence anisotropy was measured by using a fluorescent single-strand DNA-oligonucleotide (3 nM) without quencher at the 3′-end in the presence of the inhibitor in different concentrations (Fluorescein control, CFlu = 10^−9 M). Reaction mixtures (200 µl) contained TDP1 buffer (50 mM Tris-HCl, pH 8.0, 50 mM NaCl, 7 mM β-mercaptoethanol), a single-strand DNA-oligonucleotide without quencher (3 nM substrate of TDP1), a testable inhibitor and the purified TDP1 (50 nM). The reactions were incubated at a constant temperature of 26 °C in a POLARstar OPTIMA fluorimeter, BMG LABTECH, GmbH, to measure fluorescence anisotropy every 55 s (Ex482/Em530 nm) during the linear phase (from 0 to 8 min) in two independent experiments.
Fluorescence anisotropy (r) was calculated by using the Equation (1): (1) r = (III–I⊥)/(III+ 2I⊥)
The dependence of the anisotropy on the concentration of the inhibitor was determined using a six-point response curve in two independent experiments and calculated using MARS Data Analysis 2.0 (BMG LABTECH).
To obtain some information about interaction of disaccharide nucleosides with TDP1, anisotropy of the fluorescent DNA substrate was measured. We used single-stranded oligonucleotide without a quencher at the 3′-end in the presence of testable inhibitors at different concentrations.

[5] = system: A-549 cell line (adenocarcinomic human alveolar basal epithelial cells); assay: MTT test, cytotoxicity and combination with topotecan, A-549; assay type: cell-based; settings: A-549 cells; for Effect on cytotoxic effect of topotecan (in words): non-toxic inhibitor concentrations; for Synergistic coefficient (SC) with topotecan: MTT, inhibitor in combination with topotecan, SC < 1 indicates synergy
Description: (§4) Tumour cell line A549 (adenocarcinomic human alveolar basal epithelial cells) and noncancerous cell line WI-38 (fibroblasts derived from lung tissue of a 3 months gestation […] fetus) were used in cell-based experiments to determine the cytotoxicity of inhibitors and their effect on antitumour drug topotecan using standard MTT test[48]. Cells were incubated in Iscove’s Modified Dulbecco’s Medium (IMDM) supplemented with 10% fetal bovine serum and 40 µg/ml gentamicin, 10 U/ml penicillin, […], 0.25 µg/ml amphotericin at 37 °C and 5% CO2 for 24 h in a CO2 incubator; the optical density of the final solution was measured in the wells of the microplate at 570 nm and 620 nm wavelengths using a MultiScan FC (Thermo Scientific) microplate reader.
(§5) To study the effect of inhibitors on the cytotoxic effect of a well-known antitumour drug, the topotecan of the manufacturer “ACTAVIS GROUP PTC ehf.” was used. First of all, the 50% cytotoxic concentration (CC50) for topotecan and each inhibitor were determined to produce a defined single-agent effect. Second, three independent MTT-tests were performed with each inhibitor in combination with topotecan. Then, the synergistic coefficient (SC) was calculated according to the following formula (2)[49]: (2) SC= CC50 tpc,(+I)/CC50 tpc+CC50 I, (+tpc)/CC50 I,
(§6) CC50 tpc,(+I) and CC50 I,(+tpc) are the concentrations of topotecan and inhibitor used in combination to achieve 50% drug effect. CC50 tpc and CC50 I are the concentrations for single agents to achieve the same effect. SC values of less than, equal to, or more than 1 indicates synergy, additivity, and antagonism, respectively. The results were calculated and statistically processed in Microsoft Excel.

TDP1 [6] = target: T1, TDP1; assay: Real-time fluorescence detection of TDP1 activity, single-stranded FAM/BHQ biosensor; assay type: biochemical; settings: for IC50: single-stranded fluorescent biosensor 50 nM, TDP1 1.5 nM, 26 °C, read-out: IC50 (half-maximal inhibitory concentration) of TDP1 activity; for Inhibitory effect on TDP1 activity (in words): single-stranded fluorescent biosensor, primary screening
Description: as §3
To discover inhibitors of TDP1 we recently developed original single-stranded and hairpin fluorophore–quencher coupled DNA-biosensors for real-time measurement of TDP1 cleavage activity. The single-stranded substrate is a 16-mer oligonucleotide containing both 5′-FAM fluorophore donor and a quenching 3′-BHQ moiety (Figure 1(A)). When the quencher is removed by TDP1, the fluorescence intensity increases and can be measured by fluorimeter (TDP1 catalysed reaction on biosensor is shown in Figure 3(A). Fluorescence intensity declines in the presence of inhibitor, the resulting curves of the dependence of TDP1 residual activity as a function of the concentration of inhibitors were obtained using 4-parameter logistic regression fit, which was used to calculate IC50 values[47]^,[58].
For primary screening, the effect of a large group of disaccharide nucleosides and their hydrophobic derivatives on human recombinant TDP1 activity has been evaluated by fluorescent method on a single-stranded substrate described above.

[7] = Water solubility (qualitative); assay type: physicochemical
[8] = system: WI-38 cell line (noncancerous fibroblasts derived from lung tissue); assay: MTT test, cytotoxicity and combination with topotecan, WI-38; assay type: cell-based, human; settings: WI-38 non-cancerous cell line
Description: as §4, §5, §6

T2 sequence (Q9NUW8 whole entry H493R): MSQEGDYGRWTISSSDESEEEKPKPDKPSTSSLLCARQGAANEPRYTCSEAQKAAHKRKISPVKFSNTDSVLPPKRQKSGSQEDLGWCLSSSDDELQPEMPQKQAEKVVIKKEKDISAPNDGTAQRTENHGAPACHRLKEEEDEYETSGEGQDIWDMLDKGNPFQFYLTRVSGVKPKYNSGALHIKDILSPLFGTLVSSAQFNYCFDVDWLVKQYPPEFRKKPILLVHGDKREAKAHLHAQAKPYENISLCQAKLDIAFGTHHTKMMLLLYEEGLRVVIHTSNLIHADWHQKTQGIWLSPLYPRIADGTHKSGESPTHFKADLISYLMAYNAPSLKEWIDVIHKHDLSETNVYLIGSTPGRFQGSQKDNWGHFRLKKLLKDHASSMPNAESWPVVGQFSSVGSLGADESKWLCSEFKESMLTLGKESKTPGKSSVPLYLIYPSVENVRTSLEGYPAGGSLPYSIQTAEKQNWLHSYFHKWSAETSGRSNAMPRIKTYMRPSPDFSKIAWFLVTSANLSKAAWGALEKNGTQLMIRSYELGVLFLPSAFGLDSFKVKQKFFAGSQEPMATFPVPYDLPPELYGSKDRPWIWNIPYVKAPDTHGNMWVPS
T1 sequence (Q9NUW8 whole entry): as the sequence (Q9NUW8 whole entry H493R) above, with R493H counted along it

Type of inhibition (TDP1 [1])	Ki (TDP1 [1])	IC50 [2]	Type of inhibition (TDP1 [3])	Ki (TDP1 [3])	Change of fluorescence anisotropy with inhibitor concentration (TDP1 [4])	IC50 (TDP1 [6])	Inhibitory effect on TDP1 activity (in words) (TDP1 [6])	Water solubility (in words) [7]	Structure (SMILES)	Effect on cytotoxic effect of topotecan (in words) [5]	Synergistic coefficient (SC) with topotecan [5]	Synergy with topotecan (in words) [8]
Mixed	200 ± 100 nM	> 100 µM	Mixed	300 ± 200 nM	significant decrease in the anisotropy	–	–	–	CC(C)C(=O)Nc1nc2c(ncn2[C@@H]2O[C@@H]3CO[Si](C(C)C)(C(C)C)O[Si](C(C)C)(C(C)C)O[C@H]3[C@H]2O[C@@H]2O[C@H](COC(=O)c3ccccc3)[C@@H](OC(=O)c3ccccc3)[C@H]2OC(=O)c2ccccc2)c(=O)[nH]1 [Compound 11]	significant increase of cytotoxic effect of topotecan	–	–
Mixed	300 ± 100 nM	> 100 µM	Mixed	200 ± 100 nM	significant decrease in the anisotropy	1.3 ± 0.2 µM	–	–	CC(C)[Si]1(C(C)C)OC[C@H]2O[C@@H](n3cnc4c(NC(=O)c5ccccc5)ncnc43)[C@H](O[C@@H]3O[C@H](COC(=O)c4ccccc4)[C@@H](OC(=O)c4ccccc4)[C@H]3OC(=O)c3ccccc3)[C@@H]2O[Si](C(C)C)(C(C)C)O1 [Compound 4]	significant increase of cytotoxic effect of topotecan	less than or equal to 0.7	–
–	–	–	–	–	–	–	low inhibitory effect	water-soluble	Nc1ncnc2c1ncn2[C@@H]1O[C@H](CO)[C@@H](O)[C@H]1O[C@@H]1O[C@H](COP(=O)([O-])[O-])[C@@H](O)[C@H]1O.[Na+].[Na+] [Compound 3]	–	–	–
Mixed	900 ± 300 nM	> 100 µM	Mixed	300 ± 100 nM	significant decrease in the anisotropy	–	–	–	Cc1cn([C@@H]2O[C@@H]3CO[Si](C(C)C)(C(C)C)O[Si](C(C)C)(C(C)C)O[C@H]3[C@H]2O[C@@H]2O[C@H](COC(=O)c3ccccc3)[C@@H](OC(=O)c3ccccc3)[C@H]2OC(=O)c2ccccc2)c(=O)[nH]c1=O [Compound 7]	significant increase of cytotoxic effect of topotecan	less than or equal to 0.7	–
–	–	–	–	–	–	–	not active at all	water-soluble	Nc1nc2c(ncn2[C@@H]2O[C@H](CO)[C@@H](O)[C@H]2O[C@@H]2O[C@H](COP(=O)([O-])[O-])[C@@H](O)[C@H]2O)c(=O)[nH]1.[Na+].[Na+] [Compound 9]	–	–	–
Noncompetitive	7900 ± 800 nM	> 100 µM	Noncompetitive	8800 ± 900 nM	anisotropy remained unchanged	18.5 ± 0.8 µM	–	high water solubility	Cc1cn([C@@H]2O[C@H](COP(=O)([O-])[O-])[C@@H](O)[C@H]2O[C@@H]2O[C@H](CO)[C@@H](O)[C@H]2O)c(=O)[nH]c1=O.[Na+].[Na+] [Compound 6]	significant increase of cytotoxic effect of topotecan	–	–
Mixed	300 ± 200 nM	> 100 µM	Mixed	400 ± 300 nM	significant decrease in the anisotropy	–	–	–	CC(C)[Si]1(C(C)C)OC[C@H]2O[C@@H](n3ccc(=O)[nH]c3=O)[C@H](O[C@@H]3O[C@H](COC(=O)c4ccccc4)[C@@H](OC(=O)c4ccccc4)[C@H]3OC(=O)c3ccccc3)[C@@H]2O[Si](C(C)C)(C(C)C)O1 [Compound 21]	significant increase of cytotoxic effect of topotecan	less than or equal to 0.7	demonstrated synergy with topotecan
Mixed	1700 ± 400 nM	> 100 µM	Mixed	3100 ± 300 nM	significant decrease in the anisotropy	–	–	–	CC(C)C(=O)Nc1nc2c(ncn2[C@@H]2O[C@H](CO)[C@@H](O)[C@H]2O[C@@H]2O[C@H](COC(=O)c3ccccc3)[C@@H](OC(=O)c3ccccc3)[C@H]2OC(=O)c2ccccc2)c(=O)[nH]1 [Compound 10]	significant increase of cytotoxic effect of topotecan	less than or equal to 0.7	demonstrated synergy with topotecan

Reference: article PMC6136360, “Novel group of tyrosyl-DNA-phosphodiesterase 1 inhibitors based on disaccharide nucleosides as drug prototypes for anti-cancer therapy” (Journal of Enzyme Inhibition and Medicinal Chemistry, 2018)
